Test results published in US8017594B2, “Agent against psychosocial stresses” (Yamasa Corporation, priority 2006, dated 2011).

Tested on: isolation-reared male ddy mice
Assay: Aggressive behavior of isolation-reared (sociopsychological stress) mice
Type: in vivo
Conditions: six weeks after initiation of isolation-rearing, two mice in same cage for 20 minutes, vs solvent
Description: Conceivably, this phenomenon is attributed to the fact that rearing of experimental animals under conditions where social environmental change or social stimuli are absent imposes a kind of sociopsychological stress on the animals (“Mechanism of Sleep,” pp. 52-73 “Stress and Sleep,” Asakura Publishing Co., Ltd. (1997)). In Example 1, anti-stress effects of uridine and GABA (i.e., control) were evaluated through use of this phenomenon. Specifically, isolation-rearing of male ddy mice was initiated at four weeks old, to thereby impose sociopsychological stress (stress caused by isolation-rearing) on the mice. Thus, animal models for evaluation were prepared.
On the basis of this report, the following evaluation was carried out. Specifically, six weeks after initiation of isolation-rearing, two mice were placed in the same cage for 20 minutes, and the time during which aggressive behavior was observed was measured. The effect of uridine or GABA on prolongation of aggressive behavior was evaluated.
A test compound was suspended or dissolved in 0.5% aqueous carboxymethylcellulose solution, and the resultant suspension or solution was orally administered once a day, six days a week, until the end of the experiment.
Mice were divided into four groups. Mice of one group were group-reared and received a solvent. Mice of the other three groups were isolation-reared and received a solvent (100 mg/kg/day), uridine (100 mg/kg/day), and GABA (100 mg/kg/day), respectively. Observation of aggressive behavior was carried out in […] of mice in each group (n=9).
The experiment of Example 1 was repeated, except that the dose of uridine was changed to 10 mg/kg/day, and uridylic acid was administered in place of GABA at a dose of 1 g/kg/day.

[1] = 100 mg/kg/day oral, once a day six days a week

| Compound | time during which aggressive behavior was observed (10 mg/kg/day oral (low-dose)) | time during which aggressive behavior was observed [1] | time during which aggressive behavior was observed (1 g/kg/day oral) |
| --- | --- | --- | --- |
| O=c1ccn([C@@H]2O[C@H](CO)[C@@H](O)[C@H]2O)c(=O)[nH]1 [uridine] | significantly reduced | significantly reduced | – |
| NCCCC(=O)O [GABA, γ-aminobutyric acid, reference compound] | – | significantly reduced | – |
| O=c1ccn([C@@H]2O[C@H](COP(=O)(O)O)[C@@H](O)[C@H]2O)c(=O)[nH]1 [uridylic acid] | – | – | significantly reduced |
